PMC11435058, “Synthesis of New Thiazole-Privileged Chalcones as Tubulin Polymerization Inhibitors with Potential Anticancer Activities” (Pharmaceuticals, 2024)

Tests used:
[1] = test system: U251; experiment: NCI-60 anticancer screen (SRB; single dose and five doses); settings: Homo sapiens, U-251, 48 h, read-out: Growth Percentage
[2] = test system: HOP-62; experiment: as above; settings: Homo sapiens, HOP-62, 48 h, read-out: Growth Percentage
[3] = test system: NCI-H460; experiment: as above; settings: Homo sapiens, NCI-H460, 48 h, read-out: Growth Percentage
[4] = test system: SK-OV-3; experiment: as above; settings: Homo sapiens, SK-OV-3, 48 h, read-out: Growth Percentage
[5] = test system: MDA-MB-468; experiment: as above; type: cell-based, human; settings: Homo sapiens, 48 h; MDA-MB-468; dose of 10 μM; read-out: Growth Percentage
Description: The methodology of the NCI anticancer screening has been described in detail elsewhere (http://www.dtp.nci.nih.gov). For detailed information, see Appendix A in the Supplementary Materials.
4.2.1. Screening of the anticancer activity against a panel of 60 cell Lines.
The methodology of the NCI anticancer screening has been described in detail elsewhere (http://www.dtp.nci.nih.gov.) Briefly, the primary anticancer assay was performed at approximately 60 human tumor cell lines panel derived from nine neoplastic diseases, in accordance with the protocol of the Drug Evaluation Branch, National Cancer Institute, Bethesda. Tested compounds were added to the culture at a single concentration (10μM) and the cultures were incubated for 48 h. End -point determinations were made with a protein binding dye, SRB. Results for each tested compound was reported as the percent of growth of the treated cells when compared to the untreated control cells. The percentage growth was evaluated spectrophotometrically versus controls not treated with test agents. […]

[6] = test system: T-47D; experiment: as above; settings: Homo sapiens, T47D, 48 h, read-out: Growth Percentage
[7] = test system: IGROV1; experiment: as above; settings: Homo sapiens, IGROV-1, 48 h, read-out: Growth Percentage
[8] = test system: SF-295; experiment: as above; settings: Homo sapiens, SF-295, 48 h, read-out: Growth Percentage
[9] = test system: UACC-62; experiment: as above; settings: Homo sapiens, UACC-62, 48 h, read-out: Growth Percentage
[10] = test system: CAKI-1; experiment: as above; settings: Homo sapiens, CAKI-1, 48 h, read-out: Growth Percentage
[11] = test system: OVCAR-5; experiment: as above; settings: Homo sapiens, OVCAR-5, 48 h, read-out: Growth Percentage
[12] = test system: HL-60(TB); experiment: as above; settings: Homo sapiens, HL-60, 48 h, read-out: Growth Percentage
[13] = test system: SK-MEL-2; experiment: as above; settings: Homo sapiens, SK-MEL-2, 48 h, read-out: Growth Percentage
[14] = test system: HT29; experiment: as above; settings: Homo sapiens, HT-29, 48 h, read-out: Growth Percentage
[15] = test system: SK-MEL-28; experiment: as above; settings: Homo sapiens, SK-MEL-28, 48 h, read-out: Growth Percentage
[16] = test system: KM12; experiment: as above; settings: Homo sapiens, KM12, 48 h, read-out: Growth Percentage
[17] = test system: A549/ATCC; experiment: as above; settings: Homo sapiens, A549, 48 h, read-out: Growth Percentage
[18] = test system: MDA-MB-435; experiment: as above; settings: Homo sapiens, MDA-MB-435, 48 h, read-out: Growth Percentage
[19] = test system: SW-620; experiment: as above; settings: Homo sapiens, SW-620, 48 h, read-out: Growth Percentage
[20] = test system: OVCAR-3; experiment: cells; settings: Homo sapiens, OVCAR-3, 48 h, read-out: Growth Percentage
[21] = test system: 786-0; experiment: NCI-60 anticancer screen (SRB; single dose and five doses); settings: Homo sapiens, 786-0, 48 h, read-out: Growth Percentage
[22] = test system: OVCAR-4; experiment: as above; settings: Homo sapiens, OVCAR-4, 48 h, read-out: Growth Percentage
[23] = test system: HOP-92; experiment: as above; settings: Homo sapiens, HOP-92, 48 h, read-out: Growth Percentage
[24] = test system: SNB-75; experiment: as above; settings: Homo sapiens, SNB-75, 48 h, read-out: Growth Percentage
[25] = test system: TK-10; experiment: as above; settings: Homo sapiens, TK-10, 48 h, read-out: Growth Percentage

Row | SMILES | activity at 10 µM [1] | activity at 10 µM [2] | activity at 10 µM [3] | activity at 10 µM [5] | activity at 10 µM [7] | activity at 10 µM [8] | activity at 10 µM [9] | activity at 10 µM [10] | activity at 10 µM [11] | activity at 10 µM [12] | activity at 10 µM [13] | activity at 10 µM [14] | activity at 10 µM [15] | activity at 10 µM [16] | activity at 10 µM [17] | activity at 10 µM [18] | activity at 10 µM [19] | activity at 10 µM [20] | activity at 10 µM [21] | activity at 10 µM [22] | other results
1 | Cc1[nH]c(=S)sc1C(=O)/C=C/c1ccccc1Cl [2d, (E)-3-(2-Chlorophenyl)-1-(4-Methyl-2-Thioxo-2,3-Dihydrothiazol-5-yl)Prop-2-En-1-One] | 63.3% | 91.7% | 82.2% | 30.8% | 91.9% | 82.5% | 72.9% | 68.5% | 116% | 53% | 84.8% | 122% | 101% | 63.8% | 87.6% | 80.8% | 82% | 77.4% | 93.1% | 90.3% | activity at 10 µM [4]: 118%; activity at 10 µM [6]: 47.3%
2 | Cc1[nH]c(=S)sc1C(=O)/C=C/c1ccccc1 [2a, (E)-1-(4-Methyl-2-Thioxo-2,3-Dihydrothiazol-5-yl)-3-Phenylprop-2-En-1-One] | 56.9% |  | 56.7% | 20.8% | 81.8% | 88.9% | 65.3% | 52.5% | 129% | 49.6% | 68.2% | 99.7% | 85.2% | 29% | 82.3% | 50.1% | 69.1% | 42.7% | 68.1% | 76.4% | activity at 10 µM [23]: 89.6%; activity at 10 µM [24]: 92.7%; activity at 10 µM [25]: 80.3%
3 | COc1ccc(/C=C/C(=O)c2sc(=S)[nH]c2C)cc1 [2l, (E)-3-(4-Methoxyphenyl)-1-(4-Methyl-2-Thioxo-2,3-Dihydrothiazol-5-yl)Prop-2-En-1-One] | 62.3% |  | 85.6% | 15.1% | 89.1% | 83.5% | 71.8% | 59% | 145% | 58.5% | 80.3% | 96.8% | 102% | 42.2% | 82.9% | 63.9% | 75.3% | 66.9% | 78.1% | 72.3% | activity at 10 µM [23]: 101%; activity at 10 µM [24]: 98%; activity at 10 µM [25]: 80.9%
4 | Cc1[nH]c(=S)sc1C(=O)/C=C/c1ccc(N(C)C)cc1 [2k, (E)-3-(4-(Dimethylamino)Phenyl)-1-(4-Methyl-2-Thioxo-2,3-Dihydrothiazol-5-yl)Prop-2-En-1-One] | 67.1% | 86.2% | 85.7% | 35.4% | 82.3% | 79.8% | 58.7% | 68.6% | 142% | 87% | 88.9% | 94% | 92.7% | 62.6% | 68.1% | 58.4% | 89.9% | 82.2% | 91.7% | 51.2% | activity at 10 µM [4]: 92.6%; activity at 10 µM [23]: 119%; activity at 10 µM [6]: 32.4%; activity at 10 µM [24]: 96%; activity at 10 µM [25]: 86.8%
5 | COc1ccc(/C=C/C(=O)c2sc(=S)[nH]c2C)c(OC)c1 [2n, (E)-3-(2,4-Dimethoxyphenyl)-1-(4-Methyl-2-Thioxo-2,3-Dihydrothiazol-5-yl)Prop-2-En-1-One] | 68.6% | 88.8% | 89.8% | 19.2% |  | 72.5% | 65.2% | 82.8% | 120% | 55.8% | 64.7% | 115% | 92.8% | 73.4% | 90% | 84.7% | 84.9% | 91.2% | 85.9% | 52% | activity at 10 µM [4]: 101%; activity at 10 µM [23]: 103%; activity at 10 µM [6]: 30.9%; activity at 10 µM [25]: 94.1%
6 | COc1cccc(/C=C/C(=O)c2sc(=S)[nH]c2C)c1OC [2m, (E)-3-(2,3-Dimethoxyphenyl)-1-(4-Methyl-2-Thioxo-2,3-Dihydrothiazol-5-yl)Prop-2-En-1-One] | 20.3% | 91.8% | 40.1% | 41.1% | 73.9% | 26.3% | 45.5% | 41.9% | 81.7% | 12.7% | 94.2% |  | 70% | 25.3% | 43.1% | 51.9% | 47.9% | 24.3% |  | 62.2% | activity at 10 µM [4]: 85.6%; activity at 10 µM [23]: 61.5%; activity at 10 µM [6]: 34.5%; activity at 10 µM [24]: 50.4%; activity at 10 µM [25]: 64.5%
7 | Cc1[nH]c(=S)sc1C(=O)/C=C/c1cccc(F)c1 [2b, (E)-3-(3-Fluorophenyl)-1-(4-Methyl-2-Thioxo-2,3-Dihydrothiazol-5-yl)Prop-2-En-1-One] | 17.6% | 34.8% | 43.2% | -22.7% | 32.3% | 38.4% | 58.3% | 37.7% | 88.2% | 12% | 81.2% | 47.1% | 93.7% | 11.9% | 76.4% | 35.9% | 20.9% | -1.17% | 46.9% | 79.5% | activity at 10 µM [4]: 111%; activity at 10 µM [6]: 0.69%
